In the test the test system is ADP-induced aggregation of washed platelets. The test is described as follows: Inhibition of ADP-induced aggregation of washed platelets. It counts as cell-based. The conditions noted are these: human washed platelets, light transmission aggregometry, 2 min pre-incubation with inhibitor before ADP, read-out: IC50 as inhibitors of ADP-induced aggregation of washed platelets. On the procedure:
Isolation of platelets: Human blood is obtained from informed healthy adult volunteers. Blood is collected into one-sixth volume of acid/citrate/dextrose (ACD) buffer (85 mM sodium citrate, 65 mM citric acid, and 110 mM glucose). Collected blood is placed in a water bath at 37° C. for 30 minutes. Blood is then centrifuged at 275×g for 16 minutes at room temperature and the platelet-rich plasma is removed and centrifuged at 2200×g for 13 minutes at room temperature. […]
Aggregation Studies: ADP-induced platelet aggregation is determined by measuring the transmission of light through a 0.5 ml suspension of stirred (1000 rpm) washed platelets in a lumi-aggregometer at 37° C. […] Platelet aggregation is initiated by the addition of indicated concentrations of ADP or other agonists, and the light transmission is continuously recorded for at least 8 min. When inhibitors of platelet aggregation are tested, platelets are incubated for 2 min in the presence of indicated concentrations of inhibitor before addition of ADP or other agonists, and the response is recorded for at least 8 min. The potency of agonists and inhibitors of platelet aggregation is calculated from both the rate of aggregation and the maximal extent of aggregation obtained for each determination by fitting the data to a four-parameter logistic equation using the GraphPad software package (GraphPad Corp. San Diego, Calif.). […]

For two compounds, IC50 results are on record in patent publication US7932376B2, “Pyrimidine-based non-nucleotide composition and method for inhibiting platelet aggregation” (Inspire Pharmaceuticals, Inc., priority 2005, dated 2011).

Each structure is given as a SMILES string. Where two headings read alike, the source gives them in different places.

For `CCNC(=O)Nc1ccn(C2OC(COCc3c(F)cccc3C(=O)O)C3OC(/C=C/c4ccccc4)OC32)c(=O)n1` (stereo not drawn) [Compound 2, 2′,3′-trans-cinnamylacetal-5′-(2-carboxy-6-fluoro)benzyloxy-6-N-ethylurea cytidine], the IC50 – broadly, the concentration that gives 50% inhibition – was 1.3 µM.
`CCNC(=O)Nc1ccn([C@@H]2O[C@H](COCc3ccccc3C(=O)O)C3O[C@H](/C=C/c4ccccc4)O[C@@H]32)c(=O)n1` (stereo partly drawn) [Compound 1, 2′,3′-trans-cinnamylacetal-5′-(2-carboxy)benzyloxy-6-N-ethylurea cytidine]: the IC50 (Platelet) came out at 23.5 µM.
